Assay results reported in EP1832586A1, “Thiazole-piperidine derivatives in treatment of diseases of liver and the pancreas” (Oridis Biomed Forschungs- und Entwicklungs GmbH, priority 2006, dated 2007).
One block for each molecule: values may come before it.

Key:
Type in all cases: cell-based
HuH7 = assay: CellTiter-Glo luminescent cell viability (proliferation) assay, HuH7; conditions: inhibition of HuH7 (human hepatoma) proliferation, 48 hours incubation, 10% FCS
Procedure: (§1) To practically assess the impact of the thiazole-piperidine derivatives, e.g. derivatives of piperidinyl-thiazole carboxylic acid and/or piperidinyl thiazole carboxamide, in the treatment and/or prevention of diseases according to the invention, the inhibition of cell proliferation is determined by using a luminescent cell viability assay (CellTiter-Glo®; Promega, Madison, USA). The assay is based on the relation that the ATP content is directly proportional to the number of cells present in the culture. The CellTiter-Glo® assay is performed to measure the proliferation rate of human hepatoma (HuH7, PLC/PRF/5, Hep3B, SK-Hep1), human hepatoblastoma (HepG2), human colon carcinoma (CX-2), human breast cancer (SK-Br-3), human ovarian carcinoma (HeLa) and human pancreatic carcinoma (DAN-G) cell lines. […] In particular, the compound according to formula (1) wherein R^1 is 4-isopropoxycarbonylphenyl, R^2 is 3-indolylmethyl, R^3 is hydrogen, R^4 is hydrogen, n is zero, A is a single bond, B is carbonyl, and wherein the residue R^1NR^3CO is connected to the carbon atom bound to nitrogen of the thiazole ring (compound no. XI in Table 1) inhibits proliferation of the human cell lines HepG2 and Hep3B with 10.8 and 3.5 µM, respectively.
(§2) To determine the inhibition of cell proliferation a luminescent cell viability assay (CellTiter-Glo®; Promega, Madison, USA) is implemented. The assay is based on the relation that the ATP content is directly proportional to the number of cells present in the culture (Technical Bulletin No. 228 "CellTiter-Glo® Luminescent Cell viability Assay", Revised 2/04. Promeg, Madison, USA). The CellTiter-Glo® assay is performed to measure the proliferation rate of human hepatoma (HuH7, PLC/PRF/5, Hep3B, SK-Hep1), human hepatoblastoma (HepG2), human colon carcinoma (CX-2), human breast cancer (SK-Br-3), human ovarian carcinoma (HeLa) and human pancreatic carcinoma (DAN-G) cell lines. 3000 viable cells (viability ≥ 90%) are seeded in opaque-walled 96-well plates and incubated for 24 hours in DMEM, supplemented with 2 mM glutamin. Cell proliferation is stimulated by addition of FCS to a final concentration of 10% (v/v). Simultaneously the compounds (see Table 1 and 2) are added in a concentration range of 0 to 20 µM. Triplicates are measured for each concentration. Cells and compounds (see Table 1 and 2) are incubated for a period of 48 hours in a volume of 140 µl cell culture medium (10% (v/v) FCS, 2 mM Glutamin, DMEM). The compounds according to the invention are dissolved in 60% to 100% (v/v) DMSO at a concentration of 2 mM. The final DMSO concentration under assay conditions never exceeds 1% (v/v). Throughout the assay cells are kept in a humidified incubator (95% rH) at 37°C and 5% CO2.
(§3) The final cell number is determined after 48 hour of incubation. Therefore 140 µl CellTiter-Glo®Reagent is added in each well. The contents are mixed on an orbital shaker for 2 minutes at room temperature. After subsequent incubation for additional 10 minutes at room temperature the luminescence signal is recorded within 30 min. EC50 values are calculated using the four-parametric Hill equation (Sigma Plot). Control values are: • 1) 10% (v/v) FCS, 2 mM glutamin, DMEM -> maximum cell number • 2) 2 mM glutamin, DMEM -> initial cell number

SK-Br-3 = assay: CellTiter-Glo luminescent cell viability (proliferation) assay, SK-Br-3; conditions: Sk-Br-3 (human breast cancer) proliferation, 48 hours incubation, 10% FCS
Procedure: as §1, §2, §3

DAN-G = assay: CellTiter-Glo luminescent cell viability (proliferation) assay, DAN-G; conditions: DAN-G (human pancreatic carcinoma) proliferation, 48 hours incubation, 10% FCS
Procedure: as §1, §2, §3

CX-2 = assay: CellTiter-Glo luminescent cell viability (proliferation) assay, CX-2; conditions: CX-2 (human colon carcinoma) proliferation, 48 hours incubation, 10% FCS
Procedure: as §1, §2, §3

HeLa = assay: CellTiter-Glo luminescent cell viability (proliferation) assay, HeLa; conditions: Hela (human ovarian carcinoma [sic]) proliferation, 48 hours incubation, 10% FCS
Procedure: as §1, §2, §3

EC50 (HuH7; Homo sapiens, Huh-7, 48 h): 2.53 µM
Compound: O=C(Nc1cc(-c2ccccc2)n[nH]1)c1csc(C2CCN(C(=O)c3cc4ccccc4o3)CC2)n1 [XLIV]

EC50 (HuH7; Homo sapiens, Huh-7, 48 h): 3.03 µM
Compound: Cn1nc(-c2ccccc2)cc1NC(=O)c1csc(C2CCN(C(=O)c3c(F)cccc3Cl)CC2)n1 [XLIX]

EC50 (HuH7; Homo sapiens, Huh-7, 48 h): 5.9 µM
Compound: COc1ccc(CNC(=O)c2csc(C3CCN(C(=O)CC4C=Nc5ccccc54)CC3)n2)cc1 (centres unmarked) [XLI]

EC50 (HuH7; Homo sapiens, Huh-7, 48 h): 13.9 µM
Compound: Cc1nc(C)c(C(=O)N2CCC(c3nc(C(=O)Nc4cc(-c5ccco5)n[nH]4)cs3)CC2)s1 [XLVIII]

EC50 (SK-Br-3): 11.2 µM | EC50 (HuH7; Homo sapiens, Huh-7, 48 h): 9.15 µM | EC50 (HeLa): 13.6 µM
Compound: O=C(NC1CCc2ccccc21)c1csc(C2CCN(C(=O)CC3C=Nc4ccccc43)CC2)n1 (centres unmarked) [XLVII]
EC50 (DAN-G): 9.7 µM | EC50 (CX-2): 19.9 µM

EC50 (HuH7; Homo sapiens, Huh-7, 48 h): 4 µM
Compound: Cc1ccc(NC(=O)c2csc(C3CCN(C(=O)CC4C=Nc5ccccc54)CC3)n2)c(F)c1 (centres unmarked) [XLVI]

EC50 (HuH7; Homo sapiens, Huh-7, 48 h): 7.56 µM
Compound: CN(NC(=O)c1csc(C2CCN(C(=O)CC3C=Nc4ccccc43)CC2)n1)c1cnc2ccccc2n1 (centres unmarked) [XLV]

EC50 (SK-Br-3): 23.8 µM | EC50 (HuH7; Huh-7): 2.98 µM | EC50 (HeLa): 22.9 µM
Compound: O=C(NCc1ccccc1[N+](=O)[O-])c1csc(C2CCN(C(=O)Cc3c[nH]c4ccccc34)CC2)n1 [XL]
EC50 (DAN-G): 9.01 µM | EC50 (CX-2): 14.9 µM

EC50 (HuH7; Huh-7): 13.4 µM
Compound: Cn1nc(-c2cccs2)cc1NC(=O)c1csc(C2CCN(C(=O)c3ccccc3C(F)(F)F)CC2)n1 [XVIII]

EC50 (SK-Br-3): 18.9 µM | EC50 (HeLa): 23.5 µM
Compound: Cc1nc(NC(=O)c2csc(C3CCN(C(=O)Cc4c[nH]c5ccccc45)CC3)n2)sc1C [XVII]
EC50 (DAN-G): 5.59 µM | EC50 (CX-2): > 20 µM

EC50 (SK-Br-3): > 20 µM | EC50 (HeLa): 10.5 µM
Compound: Cc1nc(C)c(C(=O)N2CCC(c3nc(C(=O)NC4C=C(c5cccs5)N=N4)cs3)CC2)s1 (centres unmarked) [XVI]
EC50 (DAN-G): 7.99 µM | EC50 (CX-2): > 20 µM

EC50 (HuH7; Homo sapiens, Huh-7, 48 h): 16.7 µM
Compound: COc1ccccc1C(=O)NNC(=O)c1csc(C2CCN(C(=O)CC3C=Nc4ccccc43)CC2)n1 (centres unmarked) [XXIII]

EC50 (HuH7; Huh-7): 5.4 µM
Compound: Cc1nc(C)c(C(=O)N2CCC(c3nc(C(=O)Nc4cc(-c5ccccc5)nn4C)cs3)CC2)s1 [XXII]

EC50 (HuH7; Homo sapiens, Huh-7, 48 h): 2.7 µM
Compound: O=C(NC1CCN(Cc2ccccc2)C1)c1csc(C2CCN(C(=O)CC3C=Nc4ccccc43)CC2)n1 (centres unmarked) [XXIX]

EC50 (HuH7; Huh-7): 2.27 µM
Compound: C#CCOC(=O)N1CCC(c2nc(C(=O)Nc3cc(-c4ccccc4)n[nH]3)cs2)CC1 [XXVIII]

EC50 (HuH7; Homo sapiens, Huh-7, 48 h): 35.6 µM
Compound: COc1ccc(CN2CCN(C(=O)c3csc(C4CCN(C(=O)CC5C=Nc6ccccc65)CC4)n3)CC2)cc1 (centres unmarked) [XXVII]

EC50 (HuH7; Homo sapiens, Huh-7, 48 h): 5.8 µM
Compound: Cc1ccc(OCC(=O)N2CCC(c3nc(C(=O)Nc4nccs4)cs3)CC2)cc1C [XXV]

EC50 (HuH7; Homo sapiens, Huh-7, 48 h): 3.08 µM
Compound: CC(=O)c1cc2cc(NC(=O)c3csc(C4CCN(C(=O)CC5C=Nc6ccccc65)CC4)n3)ccc2o1 (centres unmarked) [XXXII]

EC50 (HuH7; Homo sapiens, Huh-7, 48 h): 4.24 µM
Compound: COc1ccc(C(N)=O)cc1NC(=O)c1csc(C2CCN(C(=O)Cc3ccccc3Cl)CC2)n1 [XXXIV]

EC50 (HuH7; Huh-7): 2.19 µM
Compound: COc1ccc(C(=O)N2CCC(c3nc(C(=O)Nc4cc(-c5cccs5)n[nH]4)cs3)CC2)c(OC)c1OC [XXXIX]

EC50 (HuH7; Homo sapiens, Huh-7, 48 h): 20.6 µM
Compound: COc1cccc(CCNC(=O)c2csc(C3CCN(C(=O)CC4C=Nc5ccccc54)CC3)n2)c1 (centres unmarked) [XXXVIII]

EC50 (HuH7; Homo sapiens, Huh-7, 48 h): 3.95 µM
Compound: Cc1cc(Cl)ccc1CNC(=O)c1csc(C2CCN(C(=O)CC3C=Nc4ccccc43)CC2)n1 (centres unmarked) [XXXVI]

EC50 (HuH7; Homo sapiens, Huh-7, 48 h): 3.5 µM
Compound: Cc1nc(C)c(C(=O)N2CCC(c3nc(C(=O)Nc4cc(-c5cccs5)nn4C)cs3)CC2)s1 [XXXV]

EC50 (HuH7; Homo sapiens, Huh-7, 48 h): 4.2 µM
Compound: C=CCSc1ncccc1C(=O)N1CCC(c2nc(C(=O)Nc3cc(C(C)(C)C)n[nH]3)cs2)CC1 [XXX]
